From patent publication US8969590B1, “Autotaxin inhibitors” (University of Memphis Research Foundation, priority 2007, dated 2015)

Experiments:
ATX = ATX (Homo sapiens, UniProt Q13822); settings: prior art; cited from earlier work
ATX (autotaxin) = biological target: T1, ATX (autotaxin) (Homo sapiens, UniProt Q13822); assay: ATX inhibition assay: ATX-catalyzed FS-3 hydrolysis, fluorescence, concentrated conditioned medium from MDA MB-435 cells as ATX source; type: biochemical; settings: for % ATX Activity at 10 μM: 10 μM compound, FS-3 substrate, read at 1 hour, normalized to vehicle control, mean ± S.D. of at least three wells
T1 construct: conditioned serum-free medium (CCM) from MDA MB-435 cells as the source of ATX; endogenous in cells; host or cells: MDA-MB-435 cells (secreted into serum-free conditioned medium, concentrated ~10 fold)
Method: The efficacy of these compounds was determined by evaluating fluorescence of autotaxin at specific wavelengths. The test protocol was as follows:
In terms of ATX inhibition analysis determinations, MDA-MB-435 cells were cultured at 37° C. and 5% CO2 in Dulbecco's Modified Eagle Medium (DMEM) (MediaTech, Herndon, Va.) containing 5% fetal bovine serum (Hyclone, Logan, Utah), 100 U/ml penicillin, 100 μg/ml streptomycin (Hyclone, Logan, Utah) and 292 μg/ml L-glutamine (Hyclone, Logan, Utah). Cells were grown to ˜80% confluence at which time the cells were washed twice with sterile phosphate buffered saline prior to the addition of serum free DMEM containing L-glutamine. Conditioned medium was collected after 24-30 hours, supplemented with 20% ethylene glycol and was clarified by centrifugation at 3000×g and 4° C. for 10 min. The media was concentrated ˜10 fold and buffer exchanged into Tris (50 mM, pH 7.4) containing 20% ethylene glycol using an Amicon 8050 cell fitted with a PM30 filter (Millipore, Billerica, Mass.). Aliquots of concentrated conditioned media were stored at 4° C. until needed.
ATX inhibition was assayed using FS-3 (Echelon Biosciences, Inc., Salt Lake City, Utah, USA) as a substrate and ˜10 times concentrated conditioned serum-free medium (CCM) from MDA MB-435 cells as the source of ATX. Assays were performed in 96-well plates with CCM comprising one-third of the total volume and final FS-3 and charcoal-stripped fatty acid free BSA concentrations of 1 and 30 μM in assay buffer (1 mM each CaCl2 and MgCl2, 5 mM KCl, 140 mM NaCl, 50 mM Tris pH 8.0). Fluorescence was read at 5 minute intervals by a Synergy2 system (BioTek, Winooski, Vt.) with excitation and emission wavelengths of 485 and 538 nm, respectively. Results are shown at 1 hour, at which point all fluorescence changes as a function of time were linear. Fluorescence readings were normalized to vehicle control after subtraction of fluorescence in the absence of CCM. Data are shown as the mean±S.D. of at least three wells.

| SMILES | % ATX Activity at 10 μM (ATX (autotaxin)) | also measured |
| --- | --- | --- |
| N[C@@H](Cc1c[nH]cn1)C(=O)O [L-histidine] | – | Concentration required for ATX inhibition efficacy (ATX): millimolar concentrations were required for any efficacy |
| O=C(NN1C(=O)c2ccc(C(=O)c3ccc4c(c3)C(=O)N(NC(=O)c3ccncc3)C4=O)cc2C1=O)c1ccncc1 [Compound 5538444] | 31 ± 4% | – |
| O=C(O)c1ccc(Oc2ccc(C(=O)c3ccc4c(c3)C(=O)N(c3cccc5ccccc35)C4=O)cc2)cc1 [Compound 5210574] | 31 ± 5% | – |
| O=C(O)c1cc(C(=O)O)cc(N2C(=O)c3ccc(C(=O)c4ccc5c(c4)C(=O)N(c4cc(C(=O)O)cc(C(=O)O)c4)C5=O)cc3C2=O)c1 [Compound 5186522] | 49 ± 10% | – |
| O=C(O)c1ccc(NC(=O)c2ccc3c(c2)C(=O)N(c2ccc(/N=N/c4ccccc4)cc2)C3=O)cc1 [Compound 5564676] | – | ATX inhibition (reduction of ATX-catalyzed FS-3 hydrolysis) (ATX (autotaxin); 10 μM concentration): no reduction levels at all |

Continued, in another order:

| % ATX Activity at 10 μM (ATX (autotaxin)) | SMILES | also measured |
| --- | --- | --- |
| 48 ± 5% | O=C(O)c1ccc2c(c1)C(=O)N(c1cccc(C(=O)Nc3cccc(Cl)c3)c1)C2=O [Compound 5711925] | – |
| 21 ± 6% | CCn1c(SCC(=O)Nc2ccc(C(C)=O)cc2)nc2nc3c(cc2c1=O)CCCC3 [Compound 7921385] | – |
| 46 ± 6% | O=C(O)c1ccc(CN2C(=O)c3ccc(C(=O)c4ccc5c(c4)C(=O)N(Cc4ccc(C(=O)O)cc4)C5=O)cc3C2=O)cc1 [Compound 5761473] | – |
| 45 ± 10% | O=C(O)c1cccc(NC(=O)c2ccc3c(c2)C(=O)N(c2ccc(/N=N/c4ccccc4)cc2)C3=O)c1 [Compound 5564949] | inhibition at 10 µM (ATX (autotaxin); 10 μM concentration, read-out: ATX inhibition (reduction of ATX-catalyzed FS-3 hydrolysis)): 51% |
